{"source": "patent US20170314056A1", "about": "“METHOD OF USING NEAR INFRARED FLUORESCENT DYES FOR IMAGING AND TARGETING CANCERS” (priority 2010, published 2017)", "key": {"P69 cells": {"test_system": "P69 cells", "test": "Live-cell kinetics of dye uptake in normal prostate epithelial cells", "assay_type": "cell-based, human", "experimental": "Cells were plated on live-cell imaging chambers (World Precision Instrument, Sarasota, Fla.) overnight. Cells were exposed to cyanine dyes at different concentrations and dye uptake was evaluated by a Perkin-Elmer Ultraview ERS spinning disc confocal microscope. This system was mounted on a Zeiss Axiovert 200m inverted microscope equipped with a 37° C. stage warmer, incubator, and constant CO2 perfusion. A 63× or 100× Zeiss oil objective (numerical aperture, 1.4) was used for live cell images and a Z-stack was created using the attached piezoelectric z-stepper motor. The 633 nm laser line of an argon ion laser (set at 60% power) was used to excite the cyanine dyes. […] For comparative studies, the exposure time and laser intensity were kept identical for accurate intensity measurements. Pixel intensity was quantified using Metamorph 6.1 (Universal Imaging, Downingtown, Pa.) and the mean pixel intensity was generated as grey level using the Region Statistics feature on the software (23). To determine the dye uptake by the mitochondria, the mitochondrial tracking dye Mito Tracker Orange CMTMROS (Molecular Probes, Carlsbad, Calif.) was used. To determine the dye localization in lysosomes, a lysosome tracking dye, Lyso Tracker Green DND-26 (Molecular Probes, Carlsbad, Calif.), was selected. Imaging of mitochondrial and/or lysosome localization of the cyanine dye was conducted under confocal microscopy (24).\nTo determine if the cyanine dye uptake and accumulation in cancer cells was dependent upon OATPs, cells were preincubated with 250 μM bromosulfophthalein (BSP), a competitive inhibitor of organic anion transporting peptides (OATPs) (25), for 5 minutes prior to incubating the cells with cyanine dyes. The uptake and accumulation of cyanine dyes in the presence and absence of BSP were conducted in the stage warmer incubator for a period of 35 minutes. The levels of cyanine dye taken up and accumulated in normal prostate (P69) and prostate cancer (ARCaPM) cells were determined and compared on a real-time basis."}, "renal cancer cells": {"test_system": "renal cancer cells", "test": "Subcellular co-localization in renal cancer cells", "assay_type": "cell-based, human", "details": "Mito tracker and Lyso tracker overlay", "experimental": "To determine the dye uptake by the mitochondria, the mitochondrial tracking dye, Mito Tracker Orange CMTMROS (Molecular Probes, Carlsbad, Calif.), was used. To determine the dye localization in lysosomes, a lysosome tracking dye, Lyso Tracker Green DND-26 (Molecular Probes, Carlsbad, Calif.), was selected. Images of mitochondrial and/or lysosome localization of the cyanine dye were merged and evidence of co-localization of the cyanine dye and tracking dyes were assessed by confocal imaging using a previously established protocol.^69"}, "[1]": {"test_system": "ARCaPM orthotopic tumor metastases", "test": "Detection of metastases of orthotopic ARCaPM tumors in mice", "assay_type": "in vivo, mouse", "details": "orthotopic ARCaPM (ARCaP) model; bone and soft tissue metastases", "experimental": "The spontaneous metastasis of ARCaPM tumor cells stably transduced with an AsRed2 red fluorescence protein (RFP) (Clontech, Mountain View, Calif.) by injecting these cells orthotopically in mice was studied. ARCaPM-RFP metastasis was determined by the same procedures described above for capturing cyanine dye tumor imaging after IR-783 i.p. injection at a dose of 10 nmol/20 g. In addition, at the time of sacrifice both frozen and paraffin embedded tissue sections were obtained for RFP and confocal fluorescence imaging. Positive identification of ARCaPM-RFP cells was accomplished by fluorescence microscopy and validated by subculturing ARCaPM-RFP cells directly from bone metastasis tissue specimens."}, "[2]": {"test_system": "TRAMP mouse prostate tumors", "test": "Detection of spontaneous prostate tumors in TRAMP transgenic mice", "assay_type": "in vivo", "experimental": "The uptake of cyanine dyes by the TRAMP mouse prostate model and the Apc^Min/+ mouse-adenoma model (obtained from The Jackson Laboratory, Bar Harbor, Me.) was assessed by a similar protocol as described above. We also utilized the Olympus OV100 imaging system to detect adenoma in the Apc^Min/+ mouse model. In brief, mice were injected intraperitoneally with IR-783 dye at a dose of 10 nmol/20 g body weight and animals were subjected to total body cyanine dye imaging as described above. Animals were sacrificed at 48 hrs after dye administration and tumors were dissected and subjected to NIR imaging. The presence of tumor cells in tissue specimens was confirmed by histopathologic analysis."}, "[3]": {"test": "Systemic toxicity of IR-783 in C57BL/6 mice", "assay_type": "in vivo, mouse", "details": "normal C57BL/6 mice", "experimental": "The systemic toxicity of IR-783 was investigated in C57BL/6 mice (National Cancer Institute, Frederick, Md.) by injecting the dye by an i.p. route. The mice (N=8 per group) were subdivided into 4 groups and received PBS as control and IR-783 i.p. injection daily at the following doses: 0.375 mg/kg (imaging dose), 3.75 mg/kg and 37.5 mg/kg. […] The histomorphologic appearance of their vital organs was assessed at the time of sacrifice."}, "human bladder tumors": {"test_system": "human bladder tumors", "test": "Uptake in freshly harvested human bladder tumor specimens", "assay_type": "cell-based", "source_text": "The inventors determined the ability of IR-783 as an imaging agent for freshly harvested human renal and bladder cancer specimens. […] Fresh tumor xenografts grown in mice (FIG. 35) are able to uptake the dye. […] The nature of this uptake at this time is not clear."}, "ARCaPM cells": {"test_system": "ARCaPM cells", "test": "Detection of prostate cancer cells in human blood", "assay_type": "cell-based", "experimental": "An experimental model of evaluating human prostate cancer cells in blood was developed. In brief, heparinized whole blood from human volunteers was collected according to an Emory University approved IRB protocol. A known number of human prostate cancer cells (10-1,000) were added to 1 ml of whole blood, mixed gently with 20 μM IR-783 and incubated for 30 minutes at 37° C. The mononuclear cells and cancer cells were recovered by gradient centrifugation using Histopaque-1077 (Sigma, St. Louis, Mo.). The isolated live cells were observed under a confocal fluorescence microscope."}, "[4]": {"test": "Physicochemical properties of the dye"}, "[5]": {"details": "aqueous media; cited from earlier work"}}, "note": "“Also recorded” adds a separate entry of the source.", "data": [{"substance": "2-[2-[2-Chloro-3-[2-[1,3-dihydro-3,3-dimethyl-1-(4-sulfobutyl)-2H-indol-2-ylidene]-ethylidene]-1-cyclohexen-1-yl]-ethenyl]-3,3-dimethyl-1-(4-sulfobutyl)-3H-indolium [IR-783]", "values": [{"measurement": "uptake of dye in P69 cells", "setting": "P69 cells; confocal imaging, 630×", "result": "not in normal human prostate epithelial P69 cells"}, {"measurement": "plateau of uptake and retention compared with ARCaP cells", "setting": "P69 cells; control P69 cells", "result": "much lower plateau"}, {"measurement": "start of uptake and retention", "setting": "P69 cells; control P69 cells", "result": 12, "unit": "min"}, {"measurement": "subcellular localization of the dye", "setting": "renal cancer cells", "result": "co-localization with mitochondrial and lysosome organelles"}, {"measurement": "detection of metastases by NIR imaging", "setting": "[1]", "result": "highly effective in localizing tumors cells in soft tissues and in bone; also recorded: both the primary tumor and the metastases in mouse tibia/femur were detected; also recorded: signals attained in IR-783 imaging reflect metastases of the orthotopic ARCaPM tumor"}, {"measurement": "detection of / dye uptake by TRAMP prostate tumors", "setting": "[2]; TRAMP mice, IR-783 i.p. 10 nmol/20 g", "result": "accumulate in prostate tumors and their metastases; also recorded: could detect tumor; also recorded: active uptake; also recorded: only tumor-positive signal"}, {"measurement": "NIR fluorescence of tumor specimen after formalin fixation", "setting": "[2]; TRAMP tumor, formalin solution for 3 weeks", "result": "retain heptamethine cyanine NIR fluorescence; also recorded: strong NIR signal"}, {"measurement": "effect on body weights", "setting": "[3]", "result": "did not affect body weights"}, {"measurement": "histopathology of vital organs at the time of sacrifice", "setting": "[3]", "result": "No abnormal histopathology"}, {"measurement": "systemic toxicity", "setting": "[3]; i.p. daily 0.375, 3.75 and 37.5 mg/kg, one month", "result": "no systemic toxicity"}, {"measurement": "dye uptake in normal tissue", "setting": "human bladder tumors; freshly harvested bladder specimens", "result": "to a much lesser extent by normal tissue"}, {"measurement": "dye uptake by fat cells and tissues", "setting": "human bladder tumors; freshly harvested specimens", "result": "can also be taken up by fatty tissues; also recorded: also taken up by fat cells and tissues"}, {"measurement": "dye uptake in human bladder tumor tissue", "setting": "human bladder tumors; freshly harvested specimens", "result": "can be taken up; also recorded: taken up by tumor tissues"}, {"measurement": "fewest cancer cells detected in whole blood", "setting": "ARCaPM cells; ARCaPM cells (10 to 1,000) added to 1 ml whole blood", "result": "10 cancer cells per milliliter"}, {"measurement": "visualization / dye uptake of cancer cells mixed with human blood", "setting": "ARCaPM cells; ARCaPM cells, 20 μM IR-783, 30 minutes, 37° C.", "result": "clearly visualized; also recorded: Significant uptake and retention"}, {"measurement": "signal in mononuclear cells", "setting": "ARCaPM cells; human blood, 20 μM IR-783", "result": "hardly showed any signals"}, {"measurement": "photostability", "setting": "[4]", "result": "relatively photostable"}, {"measurement": "water solubility", "setting": "[4]", "result": "water-soluble"}, {"measurement": "maximum absorption", "setting": "[5]", "result": 782, "unit": "nm"}]}]}
